Source: article PMC11822212, “High-throughput screening identifies Aurora kinase B as a critical therapeutic target for Merkel cell carcinoma” (Nature Communications, 2025)
Where two headings read alike, the source gives them in different places.

Tests used:
Assay in all cases: qHTS cell viability (CellTiter-Glo, 72 h; primary and follow-up small molecule screen)
Format in all cases: cell-based, human
MCC26 cells (VN-MCC) = test system: MCC26 cells (VN-MCC)
UISO cells (VN-MCC) = test system: UISO cells (VN-MCC)
MCC13 cells (VN-MCC) = test system: MCC13 cells (VN-MCC)
MKL-2 cells (VP-MCC) = test system: MKL-2 cells (VP-MCC)
WAGA cells (VP-MCC) = test system: WAGA cells (VP-MCC)
MKL-1 cells (VP-MCC) = test system: MKL-1 cells (VP-MCC)

SMILES	Area under the dose-response curve (AUC) MCC26 Replicate 1 (MCC26 cells (VN-MCC))	Area under the dose-response curve (AUC) MCC26 Replicate 2 (MCC26 cells (VN-MCC))	Area under the dose-response curve (AUC) MCC26 Replicate 3 (MCC26 cells (VN-MCC))	Area under the dose-response curve (AUC) UISO Replicate 1 (UISO cells (VN-MCC))	Area under the dose-response curve (AUC) UISO Replicate 2 (UISO cells (VN-MCC))	Area under the dose-response curve (AUC) UISO Replicate 3 (UISO cells (VN-MCC))	Area under the dose-response curve (AUC) MCC13 Replicate 1 (MCC13 cells (VN-MCC))	Area under the dose-response curve (AUC) MCC13 Replicate 2 (MCC13 cells (VN-MCC))	Area under the dose-response curve (AUC) MCC13 Replicate 3 (MCC13 cells (VN-MCC))	Area under the dose-response curve (AUC) MKL-2 Replicate 1 (MKL-2 cells (VP-MCC))	Area under the dose-response curve (AUC) MKL-2 Replicate 2 (MKL-2 cells (VP-MCC))	Area under the dose-response curve (AUC) MKL-2 Replicate 3 (MKL-2 cells (VP-MCC))	Area under the dose-response curve (AUC) WAGA Replicate 1 (WAGA cells (VP-MCC))	Area under the dose-response curve (AUC) WAGA Replicate 2 (WAGA cells (VP-MCC))	Area under the dose-response curve (AUC) WAGA Replicate 3 (WAGA cells (VP-MCC))	Area under the dose-response curve (AUC) MKL-1 Replicate 1 (MKL-1 cells (VP-MCC))	Area under the dose-response curve (AUC) MKL-1 Replicate 2 (MKL-1 cells (VP-MCC))	Area under the dose-response curve (AUC) MKL-1 Replicate 3 (MKL-1 cells (VP-MCC))	also measured
CC(=O)C1=C(O)[C@@H]2[C@H]3c4c[nH]c5cccc(c45)C[C@H]3C(C)(C)N2C1=O [Cyclopiazonic acid]	467.3	434.2	474.3	472.8	458.0	445.8	495.4	488.6	449.6	490.7	497.0	473.0	561.2	524.5	501.8	549.5	470.8	482.5	–
COc1cccc2c1C(=O)c1c(O)c3c(c(O)c1C2=O)C[C@@](O)(C(C)=O)C[C@@H]3O[C@H]1C[C@H](N)[C@H](O)[C@H](C)O1 [Daunorubicin]	309.1	298.6	273.9	226.5	238.3	225.1	326.2	316.0	313.0	202.9	215.3	253.2	254.8	263.7	266.2	228.6	217.7	240.0	–
Nc1ccc(C(=O)Nc2ccccc2N)cc1 [Dianiline]	–	–	–	–	–	–	–	–	–	–	–	–	–	–	–	–	–	–	Area under the dose-response curve (AUC) MCC26 Replicate 1 (MCC26 cells (VN-MCC); follow-up screen, MCC26, replicate 1): 384.0; Area under the dose-response curve (AUC) MCC26 Replicate 2 (MCC26 cells (VN-MCC); follow-up screen, MCC26, replicate 2): 438.4; Area under the dose-response curve (AUC) MCC26 Replicate 3 (MCC26 cells (VN-MCC); follow-up screen, MCC26, replicate 3): 461.6; Area under the dose-response curve (AUC) UISO Replicate 1 (UISO cells (VN-MCC); follow-up screen, UISO, replicate 1): 377.0; Area under the dose-response curve (AUC) UISO Replicate 2 (UISO cells (VN-MCC); follow-up screen, UISO, replicate 2): 432.3; Area under the dose-response curve (AUC) UISO Replicate 3 (UISO cells (VN-MCC); follow-up screen, UISO, replicate 3): 415.8; Area under the dose-response curve (AUC) MCC13 Replicate 1 (MCC13 cells (VN-MCC); follow-up screen, MCC13, replicate 1): 470.9; Area under the dose-response curve (AUC) MCC13 Replicate 2 (MCC13 cells (VN-MCC); follow-up screen, MCC13, replicate 2): 476.2; Area under the dose-response curve (AUC) MCC13 Replicate 3 (MCC13 cells (VN-MCC); follow-up screen, MCC13, replicate 3): 459.3; Area under the dose-response curve (AUC) MKL-2 Replicate 1 (MKL-2 cells (VP-MCC); follow-up screen, MKL-2, replicate 1): 329.9; Area under the dose-response curve (AUC) MKL-2 Replicate 2 (MKL-2 cells (VP-MCC); follow-up screen, MKL-2, replicate 2): 373.4; Area under the dose-response curve (AUC) MKL-2 Replicate 3 (MKL-2 cells (VP-MCC); follow-up screen, MKL-2, replicate 3): 408.4; Area under the dose-response curve (AUC) WAGA Replicate 1 (WAGA cells (VP-MCC); follow-up screen, WAGA, replicate 1): 404.2; Area under the dose-response curve (AUC) WAGA Replicate 2 (WAGA cells (VP-MCC); follow-up screen, WAGA, replicate 2): 318.5; Area under the dose-response curve (AUC) WAGA Replicate 3 (WAGA cells (VP-MCC); follow-up screen, WAGA, replicate 3): 364.2; Area under the dose-response curve (AUC) MKL-1 Replicate 1 (MKL-1 cells (VP-MCC); follow-up screen, MKL-1, replicate 1): 338.4; Area under the dose-response curve (AUC) MKL-1 Replicate 2 (MKL-1 cells (VP-MCC); follow-up screen, MKL-1, replicate 2): 393.7; Area under the dose-response curve (AUC) MKL-1 Replicate 3 (MKL-1 cells (VP-MCC); follow-up screen, MKL-1, replicate 3): 398.6
C[C@H]1O[C@@H](O[C@H]2[C@@H](O)C[C@H](O[C@H]3[C@@H](O)C[C@H](O[C@H]4CC[C@@]5(C)[C@H](CC[C@@H]6[C@@H]5CC[C@]5(C)[C@@H](C7=CC(=O)OC7)CC[C@]65O)C4)O[C@@H]3C)O[C@@H]2C)C[C@H](O)[C@@H]1O [Digitoxin]	279.4	294.5	239.6	201.4	226.6	210.4	232.3	249.2	235.6	287.6	297.9	317.5	276.0	299.5	286.7	269.2	287.7	299.6	–
